Data: article PMC5223566, “The Benzopyrone Biochanin-A as a reversible, competitive, and selective monoamine oxidase B inhibitor” (BMC Complementary and Alternative Medicine, 2017)
Where “and” joins values, the source holds several entries; their conditions need not be identical. Identical values can stand only once. Like-named read-outs stand apart in the source and are kept apart here.

Legend:
[1] = molecular target: T1, recombinant human MAO-B (hMAO-B) (Homo sapiens, UniProt P27338); test: hMAO-B continuous spectrophotometric assay (enzymatic H2O2 production); assay type: biochemical; details: for IC50: 3 mM benzylamine, 40 min preincubation at RT, ± SEM
T1 construct: purchased Sigma-Aldrich; host or cells: baculovirus infected insect cells
T1 sequence (P27338 1-520): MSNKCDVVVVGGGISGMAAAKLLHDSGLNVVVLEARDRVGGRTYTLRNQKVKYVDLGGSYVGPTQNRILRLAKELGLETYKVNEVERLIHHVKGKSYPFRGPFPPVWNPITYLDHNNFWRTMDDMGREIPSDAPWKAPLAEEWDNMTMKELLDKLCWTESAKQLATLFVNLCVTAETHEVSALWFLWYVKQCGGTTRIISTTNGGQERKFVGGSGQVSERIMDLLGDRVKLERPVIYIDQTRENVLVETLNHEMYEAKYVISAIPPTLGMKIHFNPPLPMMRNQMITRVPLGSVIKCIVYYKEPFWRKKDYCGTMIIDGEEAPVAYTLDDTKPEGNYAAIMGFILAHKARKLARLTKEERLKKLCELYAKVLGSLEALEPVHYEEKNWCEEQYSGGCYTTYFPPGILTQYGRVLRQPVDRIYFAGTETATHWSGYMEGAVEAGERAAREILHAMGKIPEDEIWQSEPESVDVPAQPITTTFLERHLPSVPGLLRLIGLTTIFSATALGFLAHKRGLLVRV
Protocol: (§1) A slightly modified continuous spectrophotometric assay [25] for measuring enzymatic H2O2 production was validated before the experiments. In this assay, the peroxidase chromogen reagent of 1 mM of vanillic acid and 500 μM 4-aminoantipyrine, and 4 U purpurogallin/mL of horseradish peroxidase (HRP) type-II in HBSS (pH 7.4) was prepared and validated with H2O2 standard curve. […] Isozymes were diluted to 0.7 U/mL final concentration by 10 mM HEPES in HBSS (pH 7.4). Substrates final concentrations were optimized to be 0.5 and 3 mM tyramine HCl and benzylamine HCl for hMAO-A and hMAO-B reactions. […] Stock solvents (ethanol or dimethyl sulfoxide) were kept ≤ 2% the final volume of all assays.
(§2) The six benzopyrones of 5 × final concentrations between 0 to 400 μM and PCSEE from 0 to 250 μg/mL of at least ten data points were prepared in HBSS (pH 7.4). […] Freshly prepared volumes of 50 μL of 2.5 × substrate and peroxidase chromogen mix (1:1) were added. Absorbance was immediately read at 490 nm by the Bio-Tek μQuant Monochromatic Microplate Spectrophotometer for time zero. H2O2 production progression for each enzyme was measured every 20 min for the duration of the assay. First read measurements and the blanks background were subtracted from all absorbance values.

[2] = molecular target: T2, recombinant human MAO-A (hMAO-A) (Homo sapiens, UniProt P21397); test: hMAO-A continuous spectrophotometric assay (enzymatic H2O2 production); assay type: biochemical; details: for RSA (relative selectivity for hMAO-A): hMAO-B IC50/hMAO-A IC50
T2 construct: purchased Sigma-Aldrich; host or cells: baculovirus infected insect cells
T2 sequence (P21397 1-527): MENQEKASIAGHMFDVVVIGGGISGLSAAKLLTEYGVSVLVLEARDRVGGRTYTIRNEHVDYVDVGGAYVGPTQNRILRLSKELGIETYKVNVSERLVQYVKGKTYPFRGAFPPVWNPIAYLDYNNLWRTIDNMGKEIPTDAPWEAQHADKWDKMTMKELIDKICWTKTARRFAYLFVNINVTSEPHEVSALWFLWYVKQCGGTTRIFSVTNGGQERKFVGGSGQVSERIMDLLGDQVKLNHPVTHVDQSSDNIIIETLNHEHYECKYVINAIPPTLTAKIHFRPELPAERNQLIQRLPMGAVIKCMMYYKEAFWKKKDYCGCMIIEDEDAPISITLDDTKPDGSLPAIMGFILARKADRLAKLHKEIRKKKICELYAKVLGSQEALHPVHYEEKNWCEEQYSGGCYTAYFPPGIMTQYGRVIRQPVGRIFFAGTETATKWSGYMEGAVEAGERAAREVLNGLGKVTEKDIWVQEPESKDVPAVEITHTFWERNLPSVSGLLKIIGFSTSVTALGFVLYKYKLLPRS
Protocol: as §1, §2

hMAO-B [3] = molecular target: T3, hMAO-B (Homo sapiens, UniProt P27338); test: hMAO-B MAO-Glo luminescence assay; assay type: biochemical; parameters: purchased Sigma-Aldrich; host or cells: baculovirus infected insect cells; details: 10 μg/mL; MAO-Glo kit
T3 sequence (P27338 1-520): T1 sequence (P27338 1-520)
Protocol: A slightly modified continuous spectrophotometric assay for measuring enzymatic H2O2 production was validated before the experiments. In this assay, the peroxidase chromogen reagent of 1 mM of vanillic acid and 500 μM 4-aminoantipyrine, and 4 U purpurogallin/mL of horseradish peroxidase (HRP) type-II in HBSS (pH 7.4) was prepared and validated with H2O2 standard curve. The linearity of reaction on the instrument was confirmed to reach up to 1.76 nmol per reaction volume with R^2 of 0.9999. Isozymes were diluted to 0.7 U/mL final concentration by 10 mM HEPES in HBSS (pH 7.4). Substrates final concentrations were optimized to be 0.5 and 3 mM tyramine HCl and benzylamine HCl for hMAO-A and hMAO-B reactions. The assay was run with and without different standard MAOIs with different selectivities (DEP, CLORG, pirlindole, and rasagiline) and monitored for few hours. Isozymes were found stable within the time of incubation. Stock solvents (ethanol or dimethyl sulfoxide) were kept ≤ 2% the final volume of all assays.
A buffer of 12.5 μL was used to make equivalent blank volumes of wells without enzyme. […] Reporter luciferase detects reagent of 50 μL was incubated with each reaction for 20-30 min to inhibit the enzyme and produce luminescence. Arbitrary light units (ALU) signal changes were measured by Synergy HTX Multi-Reader from Bio-Tek and converted to percent control change.

[4] = H2O2 scavenging activity assay; details: 15 μM H2O2; PCSEE and ascorbic acid 62.5, 125, 250 μg/mL; BIO-A 6.25, 12.5, 25 μg/mL
Protocol: The H2O2 scavenging activity of PCSEE and BIO-A at their highest used MAO inhibitory concentrations was investigated and compared to the standard scavenger L-ascorbic acid. […] Buffer substituted the H2O2 (n = 4) to make blank wells. Immediately, peroxidase chromogen-containing vanillic acid, 4-aminoantipyrine, and HRP type-II were prepared as in the MAO spectrophotometric assay and added as 25 μL per well. The developing color at 490 nm was optimally read within 15 min at RT using Bio-Tek Synergy HTX Multi-Reader absorbance.

hMAO-B [5] = molecular target: T3, hMAO-B; test: Michaelis-Menten kinetics of hMAO-B; details: mixed enzyme inhibition model, GraphPad Prism; ± SEM
hMAO-A [6] = molecular target: T4, hMAO-A (Homo sapiens, UniProt P21397); test: hMAO-A recovery after dilution (reversibility); assay type: biochemical
T4 construct: purchased Sigma-Aldrich; host or cells: baculovirus infected insect cells
T4 sequence (P21397 1-527): T2 sequence (P21397 1-527)

hMAO-B [7] = molecular target: T3, hMAO-B; test: hMAO-B recovery after dilution (reversibility); assay type: biochemical; parameters: purchased Sigma-Aldrich; host or cells: baculovirus infected insect cells
hMAO-A [8] = molecular target: T4, hMAO-A; test: hMAO-A MAO-Glo luminescence assay; assay type: biochemical; details: 10 μg/mL; MAO-Glo kit
[9] = spectrophotometric assay, 0.5 mM tyramine, 40 min preincubation at RT, ± SEM, read-out: hMAO-A IC50
[10] = 0.1 × IC50 after 100-fold dilution (diluted)
[11] = 1 × IC50 after 100-fold dilution (diluted)
[12] = recovery after dilution, monitored with time

CC(C)=CCc1c(O)cc2c(c1O)C(=O)C[C@@H](c1ccc(O)cc1)O2 [6-PN, 6-prenylnaringenin]
RSB (relative selectivity for hMAO-B) ([1]; hMAO-A IC50/hMAO-B IC50): 3.0 | IC50 ([1]; spectrophotometric assay): 17.9 ± 1.84 µM | IC50 [2, 9]: 54.53 ± 0.31 µM | relative effectiveness between isozymes, luminescence assay (hMAO-B [3]): more effective against hMAO-B

COc1ccc(-c2coc3cc(O)cc(O)c3c2=O)cc1 [BIO-A, 5,7-dihydroxy-4'-methoxyisoflavone]
H2O2 scavenging activity [4]: did not show any scavenging activities | hMAO-B inhibition model alpha (hMAO-B [5]): > 1 | % hMAO-A H2O2 production control (hMAO-A [6]; [10]): 90% | % hMAO-A H2O2 production control (hMAO-A [6]; 1 × IC50, undiluted): 44.5% | % hMAO-A H2O2 production control (hMAO-A [6]; [11]): 52% and ~ 50% | reversibility of hMAO-A inhibition (hMAO-A [6]; [12]): reversible inhibitor | % hMAO-B H2O2 production control (hMAO-B [7]; [10]): 80% | % hMAO-B H2O2 production control (hMAO-B [7]; 1 × IC50, undiluted): 36% | % hMAO-B H2O2 production control (hMAO-B [7]; [11]): 51% and ~ 50% | reversibility of hMAO-B inhibition (hMAO-B [7]; [12]): reversible inhibitor

C#CCN(C)[C@H](C)Cc1ccccc1 [DEP, selegiline, reference compound]
% hMAO-A H2O2 production control (hMAO-A [6]; [10]): 7%

O=c1ccc2ccc3occc3c2o1 [IPS, isopsoralen]
IC50 ([1]; spectrophotometric assay): 51 ± 0.24 µM | IC50 [2]: 20.6 ± 2.45 µM | RSA (relative selectivity for hMAO-A) [2]: 2.5 | relative effectiveness between isozymes, luminescence assay (hMAO-A [8]): more effective against hMAO-A

CC(C)=CCc1cc(-c2coc3cc(O)ccc3c2=O)ccc1O [NBI, neobavaisoflavone]
IC50 ([1]; spectrophotometric assay): 77.3 ± 10.6 µM | RSA (relative selectivity for hMAO-A) [2]: 1.2 | IC50 [2, 9]: 66.5 ± 5.66 µM | relative effectiveness between isozymes, luminescence assay (hMAO-A [8]): more effective against hMAO-A

O=c1ccc2cc3ccoc3cc2o1 [PS, psoralen]
IC50 ([1]; spectrophotometric assay): 175 ± 50.9 µM | RSA (relative selectivity for hMAO-A) [2]: 2.0 | IC50 [2, 9]: 89 ± 5.74 µM | relative effectiveness between isozymes, luminescence assay (hMAO-A [8]): more effective against hMAO-A

CC(C)=CCc1cc2c(cc1O)oc(=O)c1c3ccc(O)cc3oc21 [PSD, psoralidin]
hMAO-B inhibition (in words) ([1]; spectrophotometric assay, up to 400 μM, p < 0.001): partial inhibition | hMAO-A inhibition (in words) ([2]; spectrophotometric assay, up to 400 μM): no detectable inhibition

O=C1O[C@H]([C@@H](O)CO)C(O)=C1O [ascorbic acid, L-ascorbic acid, reference compound]
H2O2 scavenging activity [4]: complete scavenging activity
